The values that follow come from article PMC3828267 (PLoS ONE, 2013).

Where two headings read alike, the source gives them in different places. Some results are limits rather than exact numbers.

For data set [1], the target named is T1, α7 AChRs (Homo sapiens, UniProt P36544). The note with it: α7, antagonist 10 µM applied after 10 minutes. The procedure: (§1) Responses were monitored for 10 minutes, and then specific antagonists were added and responses recorded for another two minutes.
The next data set relates to (α4β2)2α4 AChRs. Particulars: cited from earlier work.
In data set [2] the target is T2, (α4β2)2β2 AChRs (Homo sapiens, UniProt P17787+P43681).
T2 construct: expressed in transfected cells
T2 sequence (P43681 29-627 limits assumed): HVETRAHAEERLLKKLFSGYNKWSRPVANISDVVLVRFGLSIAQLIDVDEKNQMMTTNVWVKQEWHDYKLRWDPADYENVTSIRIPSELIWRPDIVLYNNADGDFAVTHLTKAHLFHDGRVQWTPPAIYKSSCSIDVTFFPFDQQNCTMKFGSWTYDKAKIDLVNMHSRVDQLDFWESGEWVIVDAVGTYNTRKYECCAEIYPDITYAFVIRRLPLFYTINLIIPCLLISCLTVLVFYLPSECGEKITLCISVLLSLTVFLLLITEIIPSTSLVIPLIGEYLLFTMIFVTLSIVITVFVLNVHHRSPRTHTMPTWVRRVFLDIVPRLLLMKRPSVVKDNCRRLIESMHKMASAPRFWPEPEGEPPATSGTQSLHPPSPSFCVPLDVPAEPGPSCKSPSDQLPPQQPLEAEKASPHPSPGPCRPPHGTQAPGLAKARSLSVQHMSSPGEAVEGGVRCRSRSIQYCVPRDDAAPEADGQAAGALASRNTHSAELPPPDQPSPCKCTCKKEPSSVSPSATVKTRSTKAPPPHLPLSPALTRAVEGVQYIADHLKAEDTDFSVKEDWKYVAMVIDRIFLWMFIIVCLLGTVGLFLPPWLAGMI
T2 sequence (P17787 26-502): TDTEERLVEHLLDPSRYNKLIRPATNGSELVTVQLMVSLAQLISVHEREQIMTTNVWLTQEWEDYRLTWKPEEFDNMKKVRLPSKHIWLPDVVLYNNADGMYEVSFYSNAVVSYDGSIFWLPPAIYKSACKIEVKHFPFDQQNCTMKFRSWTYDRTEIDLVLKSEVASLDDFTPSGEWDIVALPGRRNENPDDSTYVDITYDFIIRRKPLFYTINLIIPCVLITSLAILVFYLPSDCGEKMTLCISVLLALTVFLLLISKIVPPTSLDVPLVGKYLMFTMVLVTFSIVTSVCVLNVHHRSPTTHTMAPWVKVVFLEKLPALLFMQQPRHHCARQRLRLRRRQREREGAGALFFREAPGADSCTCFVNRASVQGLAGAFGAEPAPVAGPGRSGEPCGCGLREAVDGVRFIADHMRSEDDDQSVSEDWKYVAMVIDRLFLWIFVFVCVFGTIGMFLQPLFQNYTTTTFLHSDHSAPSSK
Description: Sazetidine-A desensitization of α4β2 cell line enriched for (α4β2)2β2 by β2 transfection and nicotine. Type of data set: cell-based. Particulars: 6 h sazetidine-A, 3 µM and 100 µM ACh curves overlapped. The text has this:
To determine which stoichiometry of α4β2 AChRs was affected by sazetidine-A, we performed short term transfection of β2 subunits into the α4β2 expressing cell line. To increase the expression of the higher sensitivity (α4β2)2β2 stoichiometry, the cell line expressing α4 and β2 was cotransfected with human β2 (pRc-CMV/Geneticin) using the FuGene6 transfection agent (Roche Diagnostics, Indianapolis, IN).

On the set-up of data set [3]: method as in PMID 22899751. Particulars: mice treated with 2 mg/kg; cited from earlier work.
The target of data set [4] is T3, human α4β2 AChRs (Homo sapiens, UniProt P17787+P43681).
T3 construct: expressed in transfected cells
T3 sequence (P43681 29-627 limits assumed): as the sequence (P43681 29-627 limits assumed) above
T3 sequence (P17787 26-502): as the sequence (P17787 26-502) above
Nature of the data set: Chronic desensitization (16 h agonist, then ACh response) and calculated smoldering activation, α4β2 cell line. Type of data set: cell-based. The note with it: for IC50: overnight (16 h) agonist, first (more sensitive) component, read-out: Desensitization IC50; for Hill (desensitization): first component. The procedure: (§2) To measure desensitization, plates were prepared as for agonist assays. Sixteen hours prior to the assay, serial dilutions of agonists, prepared in regular growth medium, were added to the plates. One hour before the assay, the membrane potential-sensitive fluorescent dye with 0.5 µM atropine was added to the wells. […] Each data point represents the average of peak values for individual dose response curves from 4–8 wells.
(§3) Data were graphed using GraphPad Prism software. Non-linear models (sigmoidal dose-response with variable slope or two site competition) were used to fit the concentration response curves. The EC50 and IC50 were calculated from the curves. Kaleidagraph software was used to determine Hill slopes and standard errors of the EC50 and IC50.
(§4) Responses for the three different AChRs are shown in Figures 3, 4, 5, 6, along with the dose response curves for activation (the same as shown in Figure 2). The range of concentrations at which both sustained activation and desensitization can occur (“smoldering activation”) was calculated by multiplying the acute response to agonists at each concentration by the fractional response remaining after desensitization.

Data set [5] deals with T3, human α4β2 AChRs. Description: Acute activation, FLEXStation membrane potential dye, α4β2 cell line. Type of data set: cell-based. How it is done:
(§5) The parental cell line used for transfections was tsA201, derived from the human embryonic kidney cell line (HEK) 293 [33]. […] The cell line permanently expressing α3β4 AChRs has been described, [34]. A stable cell line expressing functional α7 AChRs was prepared by initially transfecting the tsA201 cell line with cDNA for α7 and subsequently transfecting with cDNA for the AChR-selective chaperone, human RIC-3.
(§6) Responses to nicotinic agonists were determined using a FLEXStation microplate fluorometer (Molecular Devices, Sunnyvale, CA) as described. For cell lines expressing α4β2 and α3β4 AChRs, the cells were plated at 10^5 cells/ml (100 µl/well) in black-walled clear-bottom 96 well plates (Costar, Fisher Scientific, Pittsbugh, PA), and incubated for 48 hours prior to assaying responses to various nicotinic agonists. The α7/RIC-3 expressing cells were plated at 5×10^5/ml in black-walled clear-bottom 96 well BioCoat plates (BD Biosciences, Franklin Lakes, NJ) in the continued presence of VPA and PBA, with the addition of 5% human AB serum (Pel-Freez Biologicals, Rogers, AR) to further increase expression of α7 [35]. The cells were then grown for 24 hours prior to the assay.
(§7) To measure responses to various nicotinic agonists, 100 µl of a fluorescent dye which is sensitive to changes in membrane potential (Molecular Devices) was added to the wells. The dye was prepared according to the manufacturer’s instructions, with the addition of atropine (0.5 µM) to block muscarinic responses. The plates were then incubated at 37°C for one hour prior to the assay. Serial dilutions of agonists were then prepared in Hanks Balanced Salt Solution (HBSS) in V-shaped 96-well plates (Fisher Scientific Co, Pittsburgh, PA). Fluorescent responses were measured in the FLEX Station at 25°C, with an excitation wavelength of 530 nm and an emission wavelength of 565 nm. Various agonists (50 µl) were added after the first 20 seconds and responses were followed for 60–120 seconds.
as §3

Data set [6] has as its target T1, α7 AChRs. Nature of the data set: Chronic desensitization (16 h agonist, then ACh response) and calculated smoldering activation, α7 cell line. The arrangement: expressed in transfected cells; grown in VPA and PBA. The note with it: α7: 10 µM ACh. Type of data set: cell-based. How it is done: as §2, §3, §4
For data set [7], the target named is T4, α3β4 AChRs (Homo sapiens, UniProt P30926+P32297).
T4 construct: expressed in transfected cells
T4 sequence (P32297 32-505): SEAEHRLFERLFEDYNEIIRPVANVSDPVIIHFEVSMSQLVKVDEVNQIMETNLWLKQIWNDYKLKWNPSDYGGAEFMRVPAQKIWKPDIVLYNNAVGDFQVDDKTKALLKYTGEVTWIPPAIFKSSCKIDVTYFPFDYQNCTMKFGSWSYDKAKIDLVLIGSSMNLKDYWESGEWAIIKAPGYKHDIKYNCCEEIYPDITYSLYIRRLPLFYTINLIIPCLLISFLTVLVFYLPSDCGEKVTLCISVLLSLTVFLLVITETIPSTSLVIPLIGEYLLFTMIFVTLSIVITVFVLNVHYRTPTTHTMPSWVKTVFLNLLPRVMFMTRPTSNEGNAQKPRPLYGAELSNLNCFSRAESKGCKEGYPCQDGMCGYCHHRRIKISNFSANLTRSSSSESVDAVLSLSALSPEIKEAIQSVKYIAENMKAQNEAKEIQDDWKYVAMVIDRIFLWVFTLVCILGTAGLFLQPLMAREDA
T4 sequence (P30926 22-498): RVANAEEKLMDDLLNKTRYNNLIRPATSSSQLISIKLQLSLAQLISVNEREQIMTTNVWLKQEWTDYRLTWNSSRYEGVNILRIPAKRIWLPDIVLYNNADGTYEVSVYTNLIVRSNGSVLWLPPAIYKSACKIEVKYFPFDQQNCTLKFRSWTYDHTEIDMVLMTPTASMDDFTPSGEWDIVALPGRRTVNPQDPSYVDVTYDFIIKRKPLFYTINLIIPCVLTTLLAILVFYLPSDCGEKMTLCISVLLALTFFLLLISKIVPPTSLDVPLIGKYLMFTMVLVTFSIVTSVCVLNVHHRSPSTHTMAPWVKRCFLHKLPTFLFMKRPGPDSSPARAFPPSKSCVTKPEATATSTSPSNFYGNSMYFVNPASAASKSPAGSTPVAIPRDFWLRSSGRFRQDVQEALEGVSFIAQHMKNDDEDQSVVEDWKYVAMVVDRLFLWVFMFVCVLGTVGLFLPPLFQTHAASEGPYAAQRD
Description: Chronic desensitization (16 h agonist, then ACh response) and calculated smoldering activation, α3β4 cell line. The data set is classed as cell-based. Particulars: α3β4: 1.0 mM ACh. The procedure:
as §2, §3, §4

In data set [8] the target is T4, α3β4 AChRs. Nature of the data set: Acute activation, FLEXStation membrane potential dye, α3β4 cell line. The data set is classed as cell-based. Particulars: α3β4. How it is done: as §5, §6, §7, §3
Data set [9] concerns the target T1, α7 AChRs. Description: Acute activation, FLEXStation membrane potential dye, α7/RIC-3 cell line. The note with it: α7. The arrangement: expressed in transfected cells; grown in VPA and PBA. Type of data set: cell-based. How it is done:
as §5, §6, §7, §3

Data set [10] concerns the target T2, (α4β2)2β2 AChRs. Particulars: cited from earlier work.
Data set [11] has as its target T4, α3β4 AChRs. Nature of the data set: Smoldering activation following acute desensitization, α3β4. The note with it: α3β4, antagonist 10 µM applied after 10 minutes. Type of data set: cell-based. The procedure: as §1
Where [12] appears, read: overnight (16 h) agonist, read-out: Desensitization IC50.

T1 sequence (P36544 23-502): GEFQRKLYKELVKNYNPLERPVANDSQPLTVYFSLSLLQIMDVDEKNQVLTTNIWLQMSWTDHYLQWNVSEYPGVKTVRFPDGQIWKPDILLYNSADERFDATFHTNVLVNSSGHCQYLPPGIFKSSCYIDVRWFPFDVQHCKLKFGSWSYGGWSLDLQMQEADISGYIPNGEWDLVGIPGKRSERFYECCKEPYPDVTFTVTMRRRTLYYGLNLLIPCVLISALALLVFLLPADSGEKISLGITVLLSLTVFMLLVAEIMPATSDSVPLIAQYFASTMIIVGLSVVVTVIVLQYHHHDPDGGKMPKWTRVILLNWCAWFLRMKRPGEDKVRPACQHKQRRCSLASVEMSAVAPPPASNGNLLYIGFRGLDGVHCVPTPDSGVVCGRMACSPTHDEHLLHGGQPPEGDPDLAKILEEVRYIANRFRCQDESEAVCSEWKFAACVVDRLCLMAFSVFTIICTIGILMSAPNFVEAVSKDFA

For the compound `CCN1C[C@]2(COC(=O)c3ccccc3N3C(=O)C[C@H](C)C3=O)CC[C@H](OC)[C@@]34[C@@H]5C[C@H]6[C@H](OC)[C@@H]5[C@](O)(C[C@@H]6OC)[C@@](O)([C@@H](OC)[C@H]23)[C@@H]14` [MLA, methyllycaconitine], the “Effect of antagonist on residual agonist response” value at α7 AChRs [1] was “abrogated”.
On to `OCCCCC#Cc1cncc(OC[C@@H]2CCN2)c1` [Sazetidine-A], for which the Activity in the data set with (α4β2)2α4 AChRs ((α4β2)2α4, Xenopus oocytes expressing human α4 and β2 subunits) was 6%. In addition, the Agonist type result in the data set with (α4β2)2α4 AChRs ((α4β2)2α4, concatenated AChRs in Xenopus oocytes) is “partial agonist with very low efficacy”; at (α4β2)2β2 AChRs [10] ((α4β2)2β2, Xenopus oocytes expressing human α4 and β2 subunits), “full agonist”; at (α4β2)2β2 AChRs [10] ((α4β2)2β2, concatenated AChRs in Xenopus oocytes), “full agonist”. For the same compound, in the data set with (α4β2)2α4 AChRs ((α4β2)2α4 stoichiometry, concatenated AChRs in Xenopus oocytes), the Efficacy was less than 1%. The “Stoichiometry of α4β2 desensitized” value on (α4β2)2β2 AChRs [2] is “desensitizes only the (α4β2)2β2 stoichiometry”. In data set [3], the Brain levels was 150 nM. For the same compound, the Serum levels in data set [3] is 1600 nM. Moreover, the “Area of overlap of activation and desensitization curves centered at” value on human α4β2 AChRs [4] ((α4β2)2β2 AChRs, 3 µM ACh) is 1.5 nM. In addition, on human α4β2 AChRs [4] (prolonged exposure, up to high concentrations), the “Extent of desensitization of α4β2 AChRs to ACh” value is reported as “full desensitization was not reached even at high concentrations”. Further, at human α4β2 AChRs [4] (α4β2, assayed with 100 µM ACh), the “Concentration from which the desensitization dose response curve shows a plateau” value is listed as “around 10 nM”. For the same compound, the “Intercept of Activation and Desensitization Curves” value is listed as 0.0015 µM at human α4β2 AChRs [4] (α4β2: 3 µM ACh ((α4β2)2β2 stoichiometry), centre of smoldering activation); “around 0.0015 µM” at human α4β2 AChRs [4] (α4β2: 3 µM ACh ((α4β2)2β2 stoichiometry), centre of smoldering activation, listed as sazetidine-A); 0.002 µM on human α4β2 AChRs [4] (α4β2: 100 µM ACh (both stoichiometries)); 1.5 µM at α7 AChRs [6]. The IC50 is 0.48 ± 0.02 nM on human α4β2 AChRs [4] (α4β2: 3 µM ACh), 0.26 ± 0.2 nM on human α4β2 AChRs [4] (α4β2: 100 µM ACh), 3500 ± 400 nM on α7 AChRs [6] (setting [12]) and 330 ± 100 nM on α3β4 AChRs [7] (setting [12]). The “Hill (desensitization)” value on human α4β2 AChRs [4] (α4β2: 3 µM ACh) was −0.9; on human α4β2 AChRs [4] (α4β2: 100 µM ACh), −0.6; at α7 AChRs [6], −2.9; at α3β4 AChRs [7], −0.5. Besides, the “Efficacy (%) (relative to ACh)” value on human α4β2 AChRs [5] (α4β2) amounted to 44%; on α3β4 AChRs [8], 100%; on α7 AChRs [9], 100%. For the same compound, the “Agonist type (full or partial)” value on human α4β2 AChRs [5] (α4β2, mixture of stoichiometries) is reported as “partial agonist”; on α3β4 AChRs [8] it was “full agonist”; at α7 AChRs [9], “full agonist”. For the same compound, the “Hill (activation)” value on human α4β2 AChRs [5] (α4β2, higher sensitivity component or monophasic curve) stood at 1.2; at α3β4 AChRs [8] it was 1.3; at α7 AChRs [9], 1.6. Besides, the EC50 at human α4β2 AChRs [5] (α4β2 cell line, mixed stoichiometries, higher sensitivity component where two-site fit, else monophasic, read-out: Activation EC50) was 2.3 ± 0.3 nM; on α3β4 AChRs [8] (read-out: Activation EC50), 170 ± 30 nM; at α7 AChRs [9] (read-out: Activation EC50) it was 1200 ± 80 nM.
As to `CNC1(C)C2CCC(C2)C1(C)C` (stereo not shown) [MCA, mecamylamine], the “Effect of antagonist on sustained agonist response” value at α3β4 AChRs [11] was “abrogated”.

As usually defined, the IC50 is the midpoint of a concentration-inhibition curve. Usually EC50 stands for the concentration giving half of the maximal effect.
